Assay results taken from patent publication US5500428A, “Furyl-substituted purines and adenosine antagonists” (Imperial Chemical Industries PLC, priority 1991, dated 1996).

Target: T1, A2 Adenosine receptor (Rattus norvegicus, UniProt P30543)
T1 construct: membrane preparations derived from the rat phaeochromocytoma cell line PC 12; host or cells: PC 12 rat phaeochromocytoma cells, membranes
Test: A2 Adenosine receptor affinity test: displacement of [3H]-NECA from PC 12 cell membrane preparations
Type: binding
Procedure: The membrane preparation is obtained as follows: Frozen pellets of PC12 cells are washed twice with ice cold, buffered, physiological saline and the cells recovered by centrifugation (1500 G) at 3° C. The separated cells are then suspended in hypotonic solution (distilled water), allowed to stand on ice for 30 minutes and are then carefully homogenized using a standard high-speed homogeniser with periodic ice-cooling to obtain a fine suspension. […] The mixture is then incubated at 37° C. After 20 minutes, the reaction is terminated by dilution with ice-cold buffer and transfer onto ice. The material obtained containing the cell membranes is recovered by centrifugation and washed by resuspension in buffer and recentrifugation. The pellet produced is then resuspended in ice-cold buffer using a hand-driven homogenizer. The resultant membrane suspension is frozen and stored under liquid nitrogen until required.
After incubation, the samples are rapidly filtered over glass-fibre mats and the filter mats are washed to remove non-receptor-bound radioligand. Receptor-bound radioligand entrapped on the filter mats is then determined by liquid scintillation counting. Filtration and washing are carried out using a conventional vacuum filtration cell harvester. The specific binding (defined as the difference between the total binding and the non-specific binding) in the presence of the particular test compound is determined and compared with the control value.

[1] = read-out: displacement of control binding

T1 sequence (P30543 whole entry): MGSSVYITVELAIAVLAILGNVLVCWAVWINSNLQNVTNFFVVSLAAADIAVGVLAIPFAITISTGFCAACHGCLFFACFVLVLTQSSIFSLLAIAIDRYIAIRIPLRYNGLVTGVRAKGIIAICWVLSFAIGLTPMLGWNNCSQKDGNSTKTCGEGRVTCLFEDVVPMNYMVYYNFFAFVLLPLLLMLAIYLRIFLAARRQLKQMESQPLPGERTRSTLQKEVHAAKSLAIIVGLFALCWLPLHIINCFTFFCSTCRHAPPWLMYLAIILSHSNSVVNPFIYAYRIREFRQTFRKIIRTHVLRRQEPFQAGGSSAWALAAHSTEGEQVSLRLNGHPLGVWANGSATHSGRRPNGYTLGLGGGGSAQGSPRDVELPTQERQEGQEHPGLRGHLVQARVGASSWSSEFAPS

COc1ccc(CCNc2nc(N)c3nc(-c4ccco4)oc3n2)cc1 [Example 1, 7-amino-2-(2-furyl)-5-[2-(4-methoxyphenyl)ethyl]asino-oxazolo[5,4-d]pyrimidine]
IC50 ([3H]-NECA displacement, PC 12 membranes, inferred from displacement at 10^-5 M and 10^-7 M, read-out: pIC50 (indicated by the % displacement values) (converted)): < 0.1 µM | inhibition at 0.1 µM [1]: 59% | inhibition at 10 µM [1]: 78%
